Data on 2 compounds can be found in patent US12453776B2, “Lipids and compositions for the delivery of therapeutics” (ARBUTUS BIOPHARMA CORPORATION, priority 2008, dated 2025).

SMILES strings stand for the structures.

The experiment deals with Factor VII. Nature of the experiment: In vivo FVII knockdown by FVII siRNA lipid formulations (chromogenic Factor VII assay, serum 24 h after i.v. dosing). The following applies: female C57Bl/6 mice, i.v. tail vein, cationic lipid/DSPC/cholesterol/PEG-lipid 40/10/40/10 with FVII siRNA, no unit at the values, method gives ED50 in mg/kg. The method, then: Cationic lipid containing particles were made using the preformed vesicle method. Cationic lipid, DSPC, cholesterol and PEG-lipid were solubilised in ethanol at a molar ratio of 40/10/40/10, respectively. The lipid mixture was added to an aqueous buffer (50 mM citrate, pH 4) with mixing to a final ethanol and lipid concentration of 30% (vol/vol) and 6.1 mg/mL respectively and allowed to equilibrate at room temperature for 2 min before extrusion. The hydrated lipids were extruded through two stacked 80 nm pore-sized filters (Nuclepore) at 22° C. using a Lipex Extruder (Northern Lipids, Vancouver, BC) until a vesicle diameter of 70-90 nm, as determined by Nicomp analysis, was obtained. This generally required 1-3 passes.
The FVII siRNA (solubilised in a 50 mM citrate, pH 4 aqueous solution containing 30% ethanol) was added to the vesicles, pre-equilibrated to 35° C., at a rate of ˜5 mL/min with mixing. […] The final encapsulated siRNA-to-lipid ratio was determined after removal of unencapsulated siRNA using size-exclusion spin columns or ion exchange spin columns.
Test formulations were initially assessed for their FVII knockdown in female 7-9 week old, 15-25 g, female C57Bl/6 mice at 0.1, 0.3, 1.0 and 5.0 mg/kg with 3 mice per treatment group. […] Mice were weighed and the appropriate dosing volumes calculated (10 μl/g body weight). […]

Compound `CCCCC/C=C\C/C=C\CCCCCCCCC(CCCCCCCC/C=C\C/C=C\CCCCC)OC(=O)CCCN(CC)CC` [DLin-M-C3-DEA] registered an ED50 (dose resulting in a 50% reduction in plasma FVII levels compared to control animals) of 0.3 mg/kg.

`CCCCC/C=C\C/C=C\CCCCCCCCC(CCCCCCCC/C=C\C/C=C\CCCCC)OC(=O)CCCN(C(C)C)C(C)C` [DLin-M-C3-DIPA] returned an ED50 (dose resulting in a 50% reduction in plasma FVII levels compared to control animals) of 4.5 mg/kg.
